Measured values from patent publication US20200254059A1, “THERAPEUTIC AGENT OF UREMIA CONTAINING ALARIN AS THE MAIN INGREDIENT” (JU TIDE CO., LTD., priority 2017, published 2020).
Entries after “also recorded” stand apart in the source; their conditions may differ.

Columns and labels:
Format in all cases: in vivo
Cisplatin-induced uremia [1] = assay: Blood biochemical test (serum BUN and CRE) in cisplatin-induced uremia Sprague-Dawley rat model
Method: (§1) The intravenous administration was done by fixing an animal into a correction frame, and slowly injecting at a rate of within 1 mL/min through the micro vein using a syringe equipped with 26 gauges needle. The intraperitoneal administration was performed by fixing the animal by a transdormal skin fixation method and intraperitoneally injecting using a syringe equipped with 26 gauges needle.
Serum obtained from the centrifugation was tested for blood urea nitrogen (BUN) and […] (CRE) using a blood biochemical analyzer (7180 Hitachi, Japan).

Cisplatin-induced uremia [2] = assay: Kidney histopathological examination in cisplatin-induced uremia Sprague-Dawley rat model
Method: as §1
Finally, animals were inhaled with ether on an necropsy day to anesthetize and euthanize, and kidneys were extracted and fixed in a 10% neutral buffered formalin solution, and the fixed tissues were cut, dehydrated, paraffin embedded and hematoxylin & eosin stained to make a specimens for histopathological examination after these histological treatment. And then, the obtained specimen is subjected to speculum using an optical microscope (Olympus BX53, Japan).

[3] = Body weight in cisplatin-induced uremia Sprague-Dawley rat model; conditions: all test substance-administered groups (10 and 20 μg/head, single IV dose 8 h after cisplatin 5 mg/kg IP); Day 7; versus normal control group
Method: Cisplatin-induced uremia was evaluated for the effect of administration of test substance on an improvement of uremia in the Sprague-Dawley rat model. […] Cisplatin was intraperitoneally administered (IP) and test substance was intravenously administered (IV).

[4] = serum, high dose group (20 μg/1 mL/head, single IV), versus induced control group given excipient

H-Ala-Pro-Ala-His-Arg-Ser-Ser-Thr-Phe-Pro-Lys-Trp-Val-Thr-Lys-Thr-Glu-Arg-Gly-Arg-Gln-Pro-Leu-Arg-Ser-OH-trifluoroacetate salt (H-APAHRSSTFPKWVTKTERGRQPLRS-OH; also: trifluoroacetate salt) [test substance, human-derived alarin, peptide derived from a splice variant of galanin-like peptide (GALP) RNA]
improvement of uremia (overall conclusion) (Cisplatin-induced uremia [1]; cisplatin-induced uremia model, conclusion from blood biochemistry and histopathology): have an effect on the improvement of uremia
blood urea nitrogen (BUN) level (Cisplatin-induced uremia [1]; [4]): significantly lower; also recorded: significant difference
creatinine (CRE) level (Cisplatin-induced uremia [1]; [4]): significantly lower; also recorded: significant difference
blood biochemical level (Cisplatin-induced uremia [1]; single dose of 10 μg/1 mL/head and 20 μg/1 mL/head IV, versus control group of excipient): tendency to improve
histopathological examination results, lesion level across doses (Cisplatin-induced uremia [2]; 10 and 20 μg/1 mL/head, single IV dose): dose-related change trend and significant changes in lesion level
level of lesion, histopathological examination of kidney (Cisplatin-induced uremia [2]; high dose group (20 μg/head, single IV), H&E stained kidney, Day 7, versus control group): significantly lower
weight level measured on the day of necropsy [3]: no significant difference
